Experimental data published in patent US12053459B2, “CDK2 inhibitors and methods of using the same” (Cedilla Therapeutics, Inc., priority 2021, dated 2024).

How the values were obtained:
CDK2/Cyclin E1(14-475) = CDK2/Cyclin E1(14-475) (Homo sapiens, UniProt P24941); assay: Caliper LabChip EZ Reader mobility shift assay, inhibition of CDK2/Cyclin E1 activity; assay type: biochemical; settings: class symbols A-D
Outline: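 CDK2/Cyclin E1(14-475) pre-incubated 30 min with compound and ATP, then reaction started with 5-FAM-QSPKKG-CONH2; final 2.5 nM enzyme, 100 μM ATP, 1.5 μM peptide, HEPES pH 7.5. Stopped with EDTA after 100 min; substrate/product conversion by capillary electrophoresis mobility shift, IC50 from four-parameter fit.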

Kuramochi cells = assay: BrdU cell proliferation assay (colorimetric ELISA), Kuramochi cells; assay type: cell-based; settings: class symbols A-D
Outline: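 Kuramochi cells (2,000/well, with Kuramochi RB^KO cells as a specificity control) were treated with a 4-point, 3-fold dilution series made from 10 mM compound stocks and left for 4 days at 37 °C. Proliferation was measured by 1 h BrdU labelling, then anti-BrdU peroxidase ELISA read at 450 nm. Signals were background-subtracted and normalized to DMSO wells.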

Row | Structure (SMILES) | IC50 (CDK2/Cyclin E1(14-475)) [µM] | IC50 (Kuramochi cells) [µM]
1 | CNC(=O)[C@H](CCCc1ccccc1)NC(=O)C1CN(C(=O)c2n[nH]c3ccccc23)CC2CN(C(=O)c3ccc(OC(C)C)c(OC)c3)CC21 (some centres unmarked) [I-182] | > 10 | > 10
2 | CNC(=O)[C@H](CCCc1ccccc1)NC(=O)C1CN(C(=O)c2ccn(C)c2)CC2CN(C(=O)c3ccc(OC(C)C)c(OC)c3)CC21 (some centres unmarked) [I-215] | > 10 | > 10
3 | CNC(=O)C(NC(=O)C1CN(C(=O)Cc2c[nH]c3cc(Cl)ccc23)CC2CN(C(=O)c3ccc(OC(C)C)c(OC)c3)CC21)[C@@H](C)OCC1CCCCC1 (some centres unmarked) [I-135] | ≤ 0.5 | 0.5 to 5
4 | CNC(=O)[C@H](CCCc1ccccc1)NC(=O)C1CN(C(=O)c2cncc(C)n2)CC2CN(C(=O)c3ccc(OC(C)C)c(OC)c3)CC21 (some centres unmarked) [I-211] | > 10 | > 10
5 | CNC(=O)[C@H](CCCc1ccccc1)NC(=O)C1CN(C(=O)c2cn(C)c3ccccc23)CC2CN(C(=O)c3ccc(OC(C)C)c(OC)c3)CC21 (some centres unmarked) [I-159] | > 10 | > 10
6 | CNC(=O)[C@H](CCCc1ccccc1)NC(=O)C1CN(C(=O)C2CCOCC2)CC2CN(C(=O)c3ccc(OC(C)C)c(OC)c3)CC21 (some centres unmarked) [I-207] | > 10 | > 10
7 | CNC(=O)[C@H](CCCc1ccccc1)NC(=O)C1CN(C(=O)Cc2c[nH]c3cc(Cl)ccc23)CC2CN(C(=O)c3ccc4oc(=O)[nH]c4c3)CC21 (some centres unmarked) [I-75] | > 10 | > 10
8 | CNC(=O)[C@H](CCCc1ccccc1)NC(=O)C1CN(C(=O)Cc2cn(CCOC)c3ccccc23)CC2CN(C(=O)c3ccc(OC(C)C)c(OC)c3)CC21 (some centres unmarked) [I-218] | > 10 | > 10
9 | CNC(=O)[C@H](CCCc1ccccc1)NC(=O)C1CN(C(=O)Cc2c[nH]c3cc(Cl)ccc23)CC2CN(C(=O)c3nc4ccccc4[nH]3)CC21 (some centres unmarked) [I-12] | > 10 | > 10
10 | C[C@H](OCc1ccc(F)cc1)[C@H](NC(=O)C1CN(C(=O)Cc2c[nH]c3cc(Cl)ccc23)CC2CN(C(=O)c3ccc(OC4CC4)cc3)CC21)C(N)=O (some centres unmarked) [I-243] | 0.5 to 5 | > 10
11 | COc1cc(C(=O)N2CC3CN(C(=O)Cc4c[nH]c5cc(Cl)ccc45)CC(C(=O)N[C@H](C(=O)NCCCCCNC(=O)OC(C)(C)C)C(C)OCc4ccccc4)C3C2)ccc1OC(C)C (single isomer, unassigned) [I-259] | ≤ 0.5 | 0.5 to 5
12 | CNC(=O)[C@H](CCCc1ccccc1)NC(=O)C1CN(C(=O)Cc2c[nH]c3cc(Cl)ccc23)CC2CN(C(=O)c3ccc(-c4cccnc4)cc3)CC21 (some centres unmarked) [I-79] | 5 to 10 | > 10
13 | CNC(=O)[C@H](CCCc1ccccc1)NC(=O)C1CN(C(=O)Cc2c[nH]c3cc(Cl)ccc23)CC2CN(C(=O)c3cn(-c4ccccc4)cn3)CC21 (some centres unmarked) [I-27] | > 10 | > 10
14 | CNC(=O)[C@H](CCCc1ccccc1)NC(=O)C1CN(C(=O)Cc2c[nH]c3cc(Cl)ccc23)CC2CN(C(=O)c3ccc4cccn4c3)CC21 (some centres unmarked) [I-43] | > 10 | > 10
15 | C[C@@H](OCc1ccc(F)cc1)[C@@H](NC(=O)C1CN(C(=O)Cc2c[nH]c3cc(Cl)ccc23)CC2CN(C(=O)c3ccc(OC4CC4)cc3)CC21)C(N)=O (some centres unmarked) [I-246] | > 10 | > 10
16 | CNC(=O)[C@H](CCCc1ccccc1)NC(=O)C1CN(C(=O)c2oc(C)nc2C)CC2CN(C(=O)c3ccc(OC(C)C)c(OC)c3)CC21 (some centres unmarked) [I-188] | > 10 | > 10
17 | CNC(=O)[C@H](CCCc1ccccc1)NC(=O)C1CN(C(=O)Cc2c[nH]c3cc(Cl)ccc23)CC2CN(C(=O)c3ccc4c(c3)oc(=O)n4C)CC21 (some centres unmarked) [I-73] | > 10 | > 10
18 | CNC(=O)[C@H](CCCc1ccccc1)NC(=O)C1CN(C(=O)Cc2c[nH]c3cc(Cl)ccc23)CC2CN(C(=O)c3cnc(C4CC4)nc3)CC21 (some centres unmarked) [I-44] | > 10 | > 10
19 | CNC(=O)[C@H](CCCc1ccccc1)NC(=O)C1CN(C(=O)Cc2nnn[nH]2)CC2CN(C(=O)c3ccc(OC(C)C)c(OC)c3)CC21 (some centres unmarked) [I-186] | > 10 | > 10
20 | CNC(=O)[C@H](CCCc1ccccc1)NC(=O)C1CN(C(=O)Cc2c[nH]c3cc(Cl)ccc23)CC2CN(C(=O)c3ccc(OC)nn3)CC21 (some centres unmarked) [I-21] | > 10 | > 10
21 | CNC(=O)[C@H](CCCc1ccccc1)NC(=O)C1CN(C(=O)Cc2c[nH]c3cc(Cl)ccc23)CC2CN(C(=O)c3c[nH]c(-c4ccccc4)n3)CC21 (some centres unmarked) [I-74] | > 10 | > 10
22 | CNC(=O)[C@H](CCCc1ccccc1)NC(=O)C1CN(C(=O)c2ccc3nccnc3c2)CC2CN(C(=O)c3ccc(OC(C)C)c(OC)c3)CC21 (some centres unmarked) [I-165] | > 10 | > 10
23 | COc1cc(C(=O)N2CC3CN(C(=O)Cc4c[nH]c5cc(Cl)ccc45)CC(C(=O)Nc4ccnc(Cc5ccccc5)c4)C3C2)ccc1OC(C)C (centres unmarked) [I-239] | 0.5 to 5 | > 10

The next lines start with results.

Row | IC50 (CDK2/Cyclin E1(14-475)) [µM] | Structure (SMILES) | IC50 (Kuramochi cells) [µM]
24 | > 10 | CNC(=O)[C@H](CCCc1ccccc1)NC(=O)C1CN(C(=O)Cc2c[nH]c3cc(Cl)ccc23)CC2CN(C(=O)c3ccc(NS(C)(=O)=O)c(OC)c3)CC21 (some centres unmarked) [I-66] | > 10
25 | 0.5 to 5 | CNC(=O)C(CCCC1CCCC1)NC(=O)C1CN(C(=O)Cc2c[nH]c3cc(Cl)ccc23)CC2CN(C(=O)c3ccc(OC(C)C)c(OC)c3)CC21 (centres unmarked) [I-93] | > 10
26 | 0.5 to 5 | CNC(=O)[C@H](C/C=C/c1ccccc1)NC(=O)C1CN(C(=O)Cc2c[nH]c3cc(Cl)ccc23)CC2CN(C(=O)c3ccc(OC(C)C)c(OC)c3)CC21 (some centres unmarked) [I-136] | > 10
27 | > 10 | CNC(=O)[C@H](CC#Cc1ccccc1)NC(=O)C1CN(C(=O)Cc2c[nH]c3cc(Cl)ccc23)CC2CN(C(=O)c3ccc(OC(C)C)c(OC)c3)CC21 (some centres unmarked) [I-137] | > 10
28 | 0.5 to 5 | CNC(=O)[C@H](CCCc1ccc(C(F)(F)F)cc1)NC(=O)C1CN(C(=O)Cc2c[nH]c3cc(Cl)ccc23)CC2CN(C(=O)c3ccc(OC(C)C)c(OC)c3)CC21 (some centres unmarked) [I-133] | > 10
29 | ≤ 0.5 | CNC(=O)[C@H](CCCc1ccccc1)NC(=O)C1CN(C(=O)Cc2c[nH]c3cc(Cl)ccc23)CC2CN(C(=O)c3cc4c(c(OC)c3)OC(C)(C)C4)CC21 (some centres unmarked) [I-83] | > 10
30 | 5 to 10 | CNC(=O)[C@H](CCCc1ccccc1)NC(=O)C1CN(C(=O)Cc2c[nH]c3ccc(OC)cc23)CC2CN(C(=O)c3ccc(OC(C)C)c(OC)c3)CC21 (some centres unmarked) [I-200] | > 10
31 | > 10 | CNC(=O)[C@H](CCCC1CCC(O)CC1)NC(=O)C1CN(C(=O)Cc2c[nH]c3cc(Cl)ccc23)CC2CN(C(=O)c3ccc(OC(C)C)c(OC)c3)CC21 (some centres unmarked) [I-116] | > 10
32 | 0.5 to 5 | CNC(=O)[C@H](CCCC(C)C)NC(=O)C1CN(C(=O)Cc2c[nH]c3cc(Cl)ccc23)CC2CN(C(=O)c3ccc(OC(C)C)c(OC)c3)CC21 (some centres unmarked) [I-97] | > 10
33 | > 10 | COc1cc(C(=O)N2CC3CN(C(=O)Cc4c[nH]c5cc(Cl)ccc45)CC(C(=O)NCC(=O)N(C)CCCc4ccccc4)C3C2)ccc1OC(C)C (single isomer, unassigned) [I-101] | > 10
34 | 0.5 to 5 | CNC(=O)[C@@H](CCCC1CCCC1)NC(=O)C1CN(C(=O)Cc2c[nH]c3cc(Cl)ccc23)CC2CN(C(=O)c3ccc(OC(C)C)c(OC)c3)CC21 (some centres unmarked) [I-132] | > 10
35 | 5 to 10 | CNC(=O)[C@H](CCCc1ccccc1)NC(=O)C1CN(C(=O)Cc2c[nH]c3cc(Cl)ccc23)CC2CN(C(=O)c3ccc(OC)c(O)c3)CC21 (some centres unmarked) [I-34] | > 10
36 | 0.5 to 5 | CNC(=O)[C@H](CCCc1ccccc1)NC(=O)C1CN(C(=O)Cc2n[nH]c3cc(Cl)ccc23)CC2CN(C(=O)c3ccc(OC(C)C)c(OC)c3)CC21 (some centres unmarked) [I-205] | > 10
37 | 0.5 to 5 | CNC(=O)[C@H](CCCc1ccccc1)NC(=O)C1CN(C(=O)Cn2cnc3cc(Cl)ccc32)CC2CN(C(=O)c3ccc(OC(C)C)c(OC)c3)CC21 (some centres unmarked) [I-156] | > 10
38 | > 10 | CNC(=O)[C@@H](CCCC1CCC(C(F)(F)F)CC1)NC(=O)C1CN(C(=O)Cc2c[nH]c3cc(Cl)ccc23)CC2CN(C(=O)c3ccc(OC(C)C)c(OC)c3)CC21 (some centres unmarked) [I-104] | > 10
39 | 0.5 to 5 | CNC(=O)[C@@H](CCCC(C)(C)C)NC(=O)C1CN(C(=O)Cc2c[nH]c3cc(Cl)ccc23)CC2CN(C(=O)c3ccc(OC(C)C)c(OC)c3)CC21 (some centres unmarked) [I-95] | > 10
40 | 0.5 to 5 | CNC(=O)[C@H](CCCC1CCCCCC1)NC(=O)C1CN(C(=O)Cc2c[nH]c3cc(Cl)ccc23)CC2CN(C(=O)c3ccc(OC(C)C)c(OC)c3)CC21 (some centres unmarked) [I-140] | > 10
41 | > 10 | CNC(=O)[C@H](CCCc1ccccc1)NC(=O)C1CN(C(=O)Cc2ccnc3ccccc23)CC2CN(C(=O)c3ccc(OC(C)C)c(OC)c3)CC21 (stereo partly drawn) [I-253, 2-(4-isopropoxy-3-methoxybenzoyl)-N—((S)-1-(methylamino)-1-oxo-5-phenylpentan-2-yl)-5-(2-(quinolin-4-yl)acetyl)octahydro-1H-pyrrolo[3,4-c]pyridine-7-carboxamide] | > 10
42 | ≤ 0.5 | CNC(=O)[C@H](CCCc1ccccc1)NC(=O)C1CN(C(=O)Cc2c[nH]c3cc(Cl)ccc23)CC2CN(C(=O)c3ccc4c(c3)n(C)c(=O)n4C(C)C)CC21 (single isomer, unassigned) [I-87] | > 10
43 | > 10 | CNC(=O)[C@H](CCCc1ccccc1)NC(=O)C1CN(C(=O)Cc2c[nH]c3cc(OC)ccc23)CC2CN(C(=O)c3ccc(Cl)c(Cl)c3)CC21 (stereo partly drawn) [I-247, 2-(3,4-dichlorobenzoyl)-5-(2-(6-methoxy-1H-indol-3-yl)acetyl)-N—((S)-1-(methylamino)-1-oxo-5-phenylpentan-2-yl)octahydro-1H-pyrrolo[3,4-c]pyridine-7-carboxamide] | > 10
